Among the data in ChEMBL document CHEMBL3507680, “University of Dundee, Gates Library screen for HepG2 cell viability” are cytotoxicity values, retold here.

This series can be described thus: Human HepG2 cell viability assay in 384 well format. The conditions noted are these: HepG2 cells, read-out: Inhibition. The class given is toxicity, cell-based. The arrangement: dose 125 nL, time 70.5 hour; concentration not given beside the values.
In the case of `CN(C)C(=O)N1CCCC(C(=O)N(C)Cc2cnc(N)nc2)C1` (centres undefined), the cytotoxicity at 70.5 h was -10.7%. The value for `CNC(=O)[C@@H]1C[C@H](n2cc(-c3ccc(Cl)cc3)nn2)CN1` was -3.41%; that for `N#Cc1cccc(N2CCCC(CO)(Cc3ccccc3F)C2)n1` (centres undefined) was 20.1%; that for `CCNC(=O)[C@@H]1C[C@H](N)CN1c1cc(C(F)(F)F)nc(N(C)C)n1` was 37.1%. As to `Cc1ccc(-c2nn(-c3cccc(F)c3)cc2CN(C)CCO)o1`, the cytotoxicity at 70.5 h was -4.83%. In the case of `Cc1cccc2c1nc(CCO)n2-c1ccc(NS(C)(=O)=O)nc1`, the cytotoxicity at 70.5 h is -8.44%. The value for `CCNC(=O)[C@@H]1C[C@@H](n2cc(CN(CC)CC)nn2)CN1` was -13.5%; that for `CN(C)CCN(C)C[C@@H]1CN(C(=O)NC2CCCC2)C[C@@H]1CO` was -8.45%. The value for `O=C(Nc1ccc(-c2nc3c([nH]2)CCNC3)cc1)N1CCCC1` was -15.7%; that for `CN1CC2(CCCN(Cc3cccc(CCN)c3)C2)OC1=O` (centres undefined) was 2.55%. As to `COC(=O)NCC(=O)N1CCC(Oc2cccc(C)c2)CC1`, the cytotoxicity at 70.5 h was -5.33%. Then `O=C(O)C1(n2ccc(-c3ccco3)n2)CCN(Cc2cccnc2)CC1`, with -4.45%; and `Cc1nc(C(C)C)cc(N2CCC3(CCC(=O)N(CC4CC4)C3)CC2)n1`, with -11%; and `CN(C)c1ccccc1C(=O)N1CCOC2(CNCCOC2)C1` (centres undefined), with -2.92%.

Regarding `C[C@@H]1CN(CCCOc2ccc(F)cc2)CC[C@@]1(O)C1CCOCC1`, the cytotoxicity at 70.5 h was found to be 2.59%.

With `O=C(CCCN1CCCCC1)NC(C(=O)O)c1ccc(Cl)cc1` (centres undefined), the cytotoxicity at 70.5 h was -5.87%. Turning to `Cc1nc(N(C)C/C=C/c2ccccc2)c2cnn(C)c2n1`, the cytotoxicity at 70.5 h is -5.71%. In the case of `COCC[C@]1(O)CCN(Cc2nc(C)cs2)C[C@H]1C`, the cytotoxicity at 70.5 h was determined as 15.3%. For the compound `NC(=O)c1cccc(CC2CCN(C(=O)Cn3cnnn3)C2)c1` (centres undefined), the cytotoxicity at 70.5 h is -10.5%. In the case of `Cc1cccc(C(C(=O)N(C)CCc2cn[nH]c2)N(C)C)c1` (centres undefined), the cytotoxicity at 70.5 h is -8.71%.

Take `CN(CCc1ccccn1)C(=O)c1ccccc1F`: the cytotoxicity at 70.5 h is -4.18%.

As to `Cc1ccc(F)c(OC2(C(=O)O)CCN(C(=O)c3ccco3)CC2)c1`, the cytotoxicity at 70.5 h is -7.46%.

Regarding `O=C(CCCN1CCCCC1)N1CCN(C(=O)c2ccc[nH]2)CC1`, the cytotoxicity at 70.5 h was 3.29%.

On to `Cc1cccnc1CC(C)NC1CCSCC1` (centres undefined), for which the cytotoxicity at 70.5 h is -3.02%. Turning to `CCN1CCN(Cc2nc(Cc3ccccc3)n[nH]2)CC1`, the cytotoxicity at 70.5 h is -5.11%.

Turning to `CCNc1ncc(C(=O)N2CCOC(CCCc3ccccc3)C2)cn1` (centres undefined), the cytotoxicity at 70.5 h is 14.5%.

As to `CC(C1CCN(C(=O)c2coc(CN3CCOCC3)c2)CC1)N(C)C` (centres undefined), the cytotoxicity at 70.5 h is -1.57%. The value for `CC(C)c1cc(NC2CCCN(C(=O)c3cccs3)C2)ncn1` (centres undefined) was 2.55%. In the case of `COCCN1C(=O)[C@H]2CC[C@@H]1CN(c1nccc(C3CCCC3)n1)C2`, the cytotoxicity at 70.5 h was -4.32%. In the case of `O=S(=O)(NCc1ccccc1)N1CCN(c2ncccn2)CC1`, the cytotoxicity at 70.5 h is -18.4%. Turning to `Cn1cnnc1CC1CCN(Cc2nn(C)c3cccc(Cl)c23)CC1`, the cytotoxicity at 70.5 h was 39.8%.

As to `COC[C@]1(O)CCN(C(=O)c2ccc(CN(C)C)o2)CC1(C)C`, the cytotoxicity at 70.5 h was -12.5%. Turning to `CC(Oc1ccc(F)cc1F)C(=O)N1CCC2(CC1)CC(=O)N(C)C2` (centres undefined), the cytotoxicity at 70.5 h was 27.3%. Regarding `O=C(NCc1cn2cccnc2n1)C1CC(=O)N(Cc2cccnc2)C1` (centres undefined), the cytotoxicity at 70.5 h was 2.43%. As for `O=C(Cc1ccccn1)N1CCC2(CC1)[C@H](O)C[C@@H]2O`, the cytotoxicity at 70.5 h is -12.4%. In the case of `CSc1ncc(CN2CC(Oc3c(C)cccc3C)C2)cn1`, the cytotoxicity at 70.5 h was -2.81%. Consider `CC(C)c1cc(=O)[nH]c(-c2ccccc2CN2CCCCCC2)n1`, for which the cytotoxicity at 70.5 h was -13.2%. For `CC(C)c1ncc(CN2C[C@@H](CN3CCCN(C)CC3)[C@@H](CO)C2)cn1`, the cytotoxicity at 70.5 h is -3.2%.

On to `Cc1ccnn1CC(=O)N1CCN(C2CCc3ccccc3C2)CC1` (centres undefined), for which the cytotoxicity at 70.5 h is 3.04%. Turning to `Cc1nnc(CN2CCC3(CCC(=O)N([C@H]4CC[C@H](O)CC4)C3)CC2)o1`, the cytotoxicity at 70.5 h is -8.57%.

As to `CSc1ccc(CN(CCO)C(=O)CCc2cccc(F)c2)cc1`, the cytotoxicity at 70.5 h is -15.9%.

Take `Cc1cc(F)cc(CN2CCCn3nc(CNS(C)(=O)=O)cc3C2)c1`: the cytotoxicity at 70.5 h was found to be 0.898%.

As for `O=C1CCOCCN1Cc1ccc(C(F)(F)F)c(F)c1`, the cytotoxicity at 70.5 h was determined as 14.1%.

As for `COc1ccc(Cl)cc1S(=O)(=O)N(C)CC(=O)Nc1cccnc1`, the cytotoxicity at 70.5 h is -5.02%. Then `CC(C)=CCN1CCN(Cc2nccn2C)[C@H]2CS(=O)(=O)C[C@H]21`, with -7.09%; and `COCC1CCN(C(C(=O)O)c2c(F)cccc2OC(C)C)CC1` (centres undefined), with -6.42%; and `CN(Cc1cc[nH]n1)C(=O)c1cn(Cc2ccccc2Cl)nn1`, with -9.32%.

`Cc1cc(C(=O)N2CCC(C)CC2)ccc1NS(C)(=O)=O`: the cytotoxicity at 70.5 h is -4.78%.

With `Cc1cnccc1NCCn1ccnc1C1CCOC1` (centres undefined), the cytotoxicity at 70.5 h was -3.31%.

As to `COc1cc(C)c(C)cc1S(=O)(=O)N(C)CC(=O)Nc1ccon1`, the cytotoxicity at 70.5 h is -15.2%. The value for `CCn1cnnc1CCNC(=O)C1COc2ccc(OC)cc2C1` (centres undefined) was -11.5%. In the case of `COCCNC(=O)c1cc(S(=O)(=O)N2CCCC2)cs1`, the cytotoxicity at 70.5 h was 14.3%. As for `COc1nccc(N2CC[C@H](CO)[C@@H](O)C2)c1C#N`, the cytotoxicity at 70.5 h was -6.06%.

As to `COc1ccc(Cl)cc1S(=O)(=O)N(C)CC(=O)Nc1ccon1`, the cytotoxicity at 70.5 h is -12%. In the case of `O=S(=O)(Cc1c(F)cccc1Cl)NCCCN1CCCCCC1`, the cytotoxicity at 70.5 h was -1.18%. For the compound `Cn1c(C(=O)N2CCc3[nH]cnc3C2C(=O)O)ccc1-c1ccccc1` (centres undefined), the cytotoxicity at 70.5 h is -2.27%. As to `NC(=O)C1CCN(C(=O)c2cc(S(=O)(=O)N3CCCCC3)cs2)CC1`, the cytotoxicity at 70.5 h was determined as 14.2%. In the case of `CC1(C)CN(C(=O)c2ncc(F)cc2F)CCC1(O)CN1CCOCC1` (centres undefined), the cytotoxicity at 70.5 h was -0.112%. `O=C(NCCc1ccncc1)c1cccc(S(=O)(=O)N[C@@H]2CCNC2)c1`: the cytotoxicity at 70.5 h came out at 19%.

Regarding `Cn1ccnc1CN1CCC(c2nnc(Cn3cccn3)n2C)CC1`, the cytotoxicity at 70.5 h worked out at 24.7%. `CC1(C)CN(Cc2c[nH]c(CC3CCCC3)n2)CC[C@]1(C)O`: the cytotoxicity at 70.5 h is -5.46%.

With `CCC(CO)n1cnc2scc(C)c2c1=O` (centres undefined), the cytotoxicity at 70.5 h is -22.7%.

`Cc1nc2c(c(N3CCN(Cc4ccco4)CC3)n1)CCNCC2`: the cytotoxicity at 70.5 h was -4.87%. Then `OCc1ccc(-c2nccn2CCC2=CCCCC2)o1`, with -9.58%; and `CN1CCN(CCCNS(=O)(=O)Cc2ccccc2F)CC1`, with -0.252%.

`CCC(C(=O)NCc1ccncc1)N(c1ccc(F)cc1)S(C)(=O)=O` (centres undefined): the cytotoxicity at 70.5 h is -0.482%. As to `COc1ccc(Cl)cc1S(=O)(=O)N(C)CC(=O)Nc1ccccc1`, the cytotoxicity at 70.5 h is -9.85%. As for `COc1cc(N2CCOC(c3ccc(F)cc3)C2)ncn1` (centres undefined), the cytotoxicity at 70.5 h was -6.22%.

For `COCCn1ccnc1C1CCCN(c2ncnc3c2CCC3)C1` (centres undefined), the cytotoxicity at 70.5 h was -0.0473%. Take `CC(C)(NC(=O)C1CCN(C2CCCCC2)CC1)c1nnc(N)s1`: the cytotoxicity at 70.5 h was determined as 1.76%. Consider `CCc1ccc(CN2CCNC(C(=O)N3CCN(C)CC3)C2)o1` (centres undefined), for which the cytotoxicity at 70.5 h is -3.44%. In the case of `CCc1ccc(CN2CCC(CNS(=O)(=O)C3CC3)C2)nc1` (centres undefined), the cytotoxicity at 70.5 h was -2.29%.

On to `CC(Nc1ncnc2c1CCNC2)c1ccc(C(C)(C)C)cc1` (centres undefined), for which the cytotoxicity at 70.5 h was 2.81%.

Consider `Cc1cc(CN(C)c2nc(-c3ccccn3)nc3c2CCNCC3)n[nH]1`, for which the cytotoxicity at 70.5 h is -11.1%. Then `CC(C)c1cc(N(C)Cc2cc(C3CC3)on2)n2nccc2n1`, with -8.41%. For `CCNc1ccnc(N2Cc3cnn(Cc4ccc(F)cc4)c3C2)n1`, the cytotoxicity at 70.5 h is -4%. `Cc1ccc(-c2cn[nH]c2C2CCCN(c3ccnc(C)n3)C2)cc1` (centres undefined): the cytotoxicity at 70.5 h is -1.31%. Then `CCCOC(=O)N1CCC(c2nnc(Cn3cccn3)n2C2CC2)CC1`, with 4.42%; and `CCN1CCN(C(=O)c2cccc(CN3CCOCC3)c2)CC1`, with -5.52%. In the case of `CCC[C@@H]1CN(Cc2cc(OC)c3c(c2)OCO3)C[C@H]1C(=O)O`, the cytotoxicity at 70.5 h was -2.82%. Then `CCN(CC1CCCN(CCc2cccc(OC)c2)C1)C(=O)CCSC` (centres undefined), with -6.12%. Take `Fc1ccccc1CN1CCCN(c2ccc3cc[nH]c3n2)CC1`: the cytotoxicity at 70.5 h was -4.59%. With `CC1CCN(S(=O)(=O)c2ccc(C(=O)N3CCSCC3)cc2)CC1`, the cytotoxicity at 70.5 h was -13%. In the case of `CC1CCCN(Cc2ccc(C(N)=O)cc2)C1` (centres undefined), the cytotoxicity at 70.5 h was 0.459%. In the case of `COCC(=O)N1CCCC(C(=O)N(C)CCCc2cnn(C)c2)C1` (centres undefined), the cytotoxicity at 70.5 h turned out to be 1%. The value for `Cc1cc(-c2ccncc2)ccc1OCC(N)=O` was -5%; that for `COC(=O)Cn1c(C)cc(=O)c2cc(F)ccc21` was -4.13%; that for `O=C(c1cccnc1N1CCN(Cc2ccoc2)CC1)N1CCCCC1` was -0.284%. Regarding `CCCn1ccnc1CN1C[C@@H](CN2CCCCC2)[C@@H](CO)C1`, the cytotoxicity at 70.5 h is -2.74%. With `CCSCC(C)NCc1nc(-c2cccnc2)no1` (centres undefined), the cytotoxicity at 70.5 h was 19.3%. Regarding `CC(CCn1cccn1)NCc1n[nH]c2c1CCCCC2` (centres undefined), the cytotoxicity at 70.5 h was 22.7%. Then `Cc1ccc(C)c(NC(=O)c2coc(C)n2)c1`, with -6.52%; and `Cc1cncc(C(=O)N2CCCC(O)(CN3CCCC3)C2)c1` (centres undefined), with -19.8%.

For `O=C(CCS(=O)(=O)c1ccccc1)NC1CCOC2(CCOCC2)C1` (centres undefined), the cytotoxicity at 70.5 h was -8.45%. With `CN(C)C(=O)c1ccc(C2CCCN2C(=O)CCC2=NNC(=O)CC2)s1` (centres undefined), the cytotoxicity at 70.5 h is -14.5%. In the case of `O=c1[nH]c(-c2ccncc2)nc2c1CCN(S(=O)(=O)N1CCCC1)C2`, the cytotoxicity at 70.5 h is -13.7%. For the compound `CCCc1cc(NCCC2CCCOC2)n2nccc2n1` (centres undefined), the cytotoxicity at 70.5 h is 14.3%. The value for `COCCC1(CO)CCCN(C(=O)c2cccnc2OC)C1` (centres undefined) was -5.91%; that for `CCOc1ccc(CNCC(O)c2ccccc2)cc1Cl` (centres undefined) was -4.88%.
